From patent US7824847B2, “Tissue preservation method with polyoxyethylene/polyoxypropylene copolymer” (Regents of the University of California, priority 2003, dated 2010)

System: bovine corneal endothelial cells
Experiment: Evaluation of the endothelial cell layer in bovine corneas stored in preservation media at 4° C. (Calcein AM viability staining)
Format: cell-based
Conditions: DMSO at 0.5%
Procedure: Evaluations of the endothelial cell layer in bovine corneas in different media. post-incubation survival utility or usefulness for transplantation is defined as less than 3% dying and less than 1.5% missing. Missing cells leave a gap in the layer; calcein-AM staining for esterase activity is used to determine cell health. Transplant surgeons typically use missing cell counts and morphology alone as the index of health and post-incubation survival utility.
Bovine eyes were obtained from Rancho Veal, Petaluma, Calif. Two to 3 hours elapsed between death of the cattle and excision of the cornea with a 1 to 2 millimeter (mm) scleral rim from the enucleated eyes. […]
The viability of the corneal endothelium was quantified with the vital stain Calcein AM (Molecular Probes, Eugene, Oreg.). The hydrophobic and non-fluorescent Calcein AM readily diffuses across the plasma membrane and into the cytoplasm. […] The bright nuclei are easily counted. […] A Zeiss IM-35 inverted fluorescence microscope (Thornwood, N.Y.) equipped with excitation and emission filters for Green Fluorescent Protein (filter set XF100-2 from Omega Optical, Brattleboro, Vt.) was used to illuminate the half cornea. […]
For analysis, each photograph was overlaid with a sheet of transparency film. A felt-tip lab pen was used to mark cells as they were counted and scored as bright (live), dim (dying), or dark (dead or missing). […]

C[S+](C)[O-] [DMSO, dimethylsulfoxide]
effect on corneal endothelial cell survival: no effect
